Reference: patent US6620833B1, “Substituted benzimidazoles, production and use thereof as agents for combating parasitic protozoas” (Bayer Aktiengesellschaft, priority 1998, dated 2003)

Key:
Assay type in all cases: in vivo
[1] = test system: Eimeria acervulina, Eimeria maxima and Eimeria tenella; test: Cage experiment on coccidiosis/chicks, mixed experimental infection; settings: for dropping scores / lesion score: assessment 0 to 6; for mortality n: dead animals/animals employed
Procedure: 8 to 12 day-old male chicks (e.g. LSL Brinkschulte/Senden) which have been reared coccidia-free receive the compounds according to the invention (test substances) in the concentration indicated in ppm with the feed from 3 days before (day −3) infection (=a.i.) until 8 (9) days after infection (=p.i.). 3 animals are kept in each cage. One or more groups of this type are employed per dose. Infection is carried out by means of a stomach tube directly into the crop with approximately 100,000 sporulated oocysts of Eimeria acervulina and with approximately 30,000 oocysts each of E. maxima and 40,000 sporulated oocysts of E. tenella. These are highly virulent strains. The exact infection dose is adjusted so that, if possible, one of three experimentally infected untreated chicks dies due to the infection. For assessment of the efficacy, the following criteria are taken into account: weight increase from the start of the experiment to the end of the experiment, death rate due to infection, macroscopic assessment of the faeces with respect to diarrhoea and excretion of blood on days 5 and 7 p.i. (assessment 0 to 6), macroscopic assessment of the intestinal mucosa, in particular of the appendices (assessment 0 to 6) and the oocyst excretion as well as the proportion (in %) of the oocysts sporulating in the course of 24 hours. The number of oocysts in the faeces was determined with the aid of a McMaster counting chamber (see Engelbrecht and coworkers “Parasitologische Arbeitsmethoden in Medizin and Veterinärmedizin” [Parasitological Working Methods in Medicine and Veterinary Medicine], Akademie-Verlag, Berlin (1965)). The individual findings are related to the untreated non-infected control groups and a total score is calculated (cf. A. Haberkorn (1986), pp. 263 to 270 in Research in Avian Coccidiosis ed L. R. McDougald, L. P. Joyner, P. L. Long, Proceedings of the Georgia Coccidiosis Conference, Nov. 18-20, 1985. Athens/Georgia USA).
In the column “ppm”, the concentration of the active compound employed in the feed is indicated in ppm.
In the column “mortality” the percentage of the dead animals is indicated under % and the number of dead animals/animals employed in the experiment is indicated under n.
In the column “weight % of not inf. control” the ratio of the weight of the treated animals to the weight of the non-infected control group is indicated.
In the columns “dropping scores”, “lesion score” and “oocyst control”, individual details of the action are given.
In the column “% efficacy”, the total score is assessed; 0% means no action, 100% means full action.

[2] = test system: Eimeria acervulina; test: Cage experiment on coccidiosis/chicks, E. acervulina readout
[3] = test system: Eimeria maxima; test: Cage experiment on coccidiosis/chicks, E. maxima readout
[4] = test system: Eimeria tenella; test: Cage experiment on coccidiosis/chicks, E. tenella readout

## CC[C@@]1([C@@H]2O[C@@H]([C@H]3O[C@@](O)(CO)[C@H](C)C[C@@H]3C)C[C@@H]2C)CC[C@H]([C@]2(C)CC[C@]3(C[C@H](O)[C@@H](C)[C@@H]([C@@H](C)[C@@H](OC)[C@H](C)C(=O)O)O3)O2)O1 [Mon., Monensin, reference compound]
[1]; Table 1, 25 ppm in feed
  % efficacy tot.: 45%
  mortality %: 33%
  oocyst in % of inf. control tot.: 66%
  weight % of not inf. control: 36%
  dropping scores: 6
  lesion score: 6
  mortality n: 1/3
[1]; Table 1, 50 ppm in feed
  % efficacy tot.: 36%
  mortality %: 33%
  oocyst in % of inf. control tot.: 19%
  weight % of not inf. control: 81%
  dropping scores: 6
  lesion score: 6
  mortality n: 1/3
[1]; Table 1, 100 ppm in feed
  % efficacy tot.: 24%
  mortality %: 33%
  oocyst in % of inf. control tot.: 36%
  weight % of not inf. control: 30%
  dropping scores: 6
  lesion score: 6
  mortality n: 1/3
[2]; Table 1, 25 ppm in feed
  oocyst in % of inf. control ac.: 98%
[2]; Table 1, 50 ppm in feed
  oocyst in % of inf. control ac.: 44%
[2]; Table 1, 100 ppm in feed
  oocyst in % of inf. control ac.: 8%
[3]; Table 1, 25 ppm in feed
  oocyst in % of inf. control max.: 0%
[3]; Table 1, 50 ppm in feed
  oocyst in % of inf. control max.: 0%
[3]; Table 1, 100 ppm in feed
  oocyst in % of inf. control max.: 0%
[4]; Table 1, 25 ppm in feed
  oocyst in % of inf. control ten.: 100%
[4]; Table 1, 50 ppm in feed
  oocyst in % of inf. control ten.: 13%
[4]; Table 1, 100 ppm in feed
  oocyst in % of inf. control ten.: 100%

## CC[C@@H](C(=O)[C@@H](C)[C@@H](O)[C@H](C)[C@@H]1O[C@@H]([C@@H](CC)C(=O)O)CC[C@@H]1C)[C@H]1O[C@]2(C=C[C@@H](O)[C@]3(CC[C@@](C)([C@H]4CC[C@](O)(CC)[C@H](C)O4)O3)O2)[C@H](C)C[C@@H]1C [Sal., Salinomycin, reference compound]
[1]; Table 3, 15 ppm in feed
  mortality %: 100%
  mortality n: 3/3
[1]; Table 3, 30 ppm in feed
  mortality %: 100%
  mortality n: 3/3
[1]; Table 3, 60 ppm in feed
  % efficacy tot.: 67%
  mortality %: 0%
  oocyst in % of inf. control tot.: 12%
  weight % of not inf. control: 106%
  dropping scores: 6
  lesion score: 1.3
  mortality n: 0/3
[2]; Table 3, 60 ppm in feed
  oocyst in % of inf. control ac.: 6%
[3]; Table 3, 60 ppm in feed
  oocyst in % of inf. control max.: 0%
[4]; Table 3, 60 ppm in feed
  oocyst in % of inf. control ten.: 31%
